Patent US10288602B2, “Screening method, a kit, a method of treatment and a compound for use in a method of treatement” (ATROGI AB, priority 2013, dated 2019)

What was measured:
CHO GLUT4 cells = experiment: Glucose uptake (3H-2-deoxy-glucose) in CHO GLUT4 cells; assay type: cell-based, Chinese Hamster; settings: for mTORC2 activity represented by glucose uptake: CHO GLUT4 cells, reference: cells not contacted
Method: (§1) Glucose uptake was measured in CHO Glut 4 (Chinese Hamster Ovary cells transfected to overexpress GLUT4) and L6-myotubes grown in 12-well plates using ^3H-2-dexoy-glucose as previously described (Nevzorova et al. 2006, Dehvari et al. 2011, Nevzorova et al. 2002) with minor modifications. L6-cells were differentiated for 7-8 days before the experiment, serum-starved over night in media containing 0.5% fatty-acid free BSA and stimulated with test compounds for totally 2 h, unless otherwise stated. The test 3′ compounds used in the experiment were: N-[5-(4,5-dihydro-1H-imidazol-2yl)-2-hydroxy-5,6,7,8-tetrahydro naphthalen-1-yl] methanesulfonamide hydrobromide (A61603), noradrenaline (NA), insulin, oxymetazoline (oxy), and 5-(methylamino)-2-({(2R,3R,6S,8S,9R,11R)-3,9,11-trimethyl-8-[(S)-1-methyl-2-oxo-2-(l H-pyrrol-2-yl)ethyl]-1,7-dioxaspiro[5.5]undec-2-yl}methyl)-1,3-benzoxazole-4-carboxylic acid (also referred to as Calcimycin) (A23187).
(§2) Inhibitors were added 30 min before stimulation. 25 min before the end of the experiment, cells were washed twice in warm PBS and kept in glucose-free DMEM together with the different drugs for 10 min before 50 nM ^3H-2-deoxy-glucose was added for additional 6 minutes. The reaction was terminated by washing the cells in ice-cold PBS three times. Cells were lysed in 0.2 NaOH for 1 h in 60° C. and the radioactivity detected by liquid scintillation (scintillation buffer Emulsifier Safe, Perking Elmer and analysis is a Tri-Carb® 2800TR from Perkin Elmer).

Akt [1] = experiment: Western blot of Akt phosphorylation (T308, S473) in CHO GLUT4 cells; assay type: cell-based, Chinese Hamster; settings: for Akt p-S473 % basal: CHO GLUT4, 10 min, approximate values from FIG. 6B, insulin, NA, oxy 0.1 μM, A61603 0.01 μM; for Akt activity represented by phosphorylation of Akt: CHO GLUT4 cells, FIG. 6, 10 min, reference: cells not contacted
Method: (§3) L6 myotubes (FIG. 5) and CHO GLUT4 cells (FIG. 6) in 12-well plates were used for western blotting. Cells were serum-starved overnight before experiment. Immunoblotting was performed as previously described (Nevzorova et al. 2006, […] et al. 2011, Nevzorova et al. 2002). Primary antibodies (Akt, phospho-Akt T308, phospho-Akt S473, AS 160, GLUT4, phospho-mTOR […], phospho-mTOR […], raptor, and rictor diluted 1:1000) were all from Cell Signaling Technology, Inc and were detected using a secondary antibody (horseradish peroxidase-linked anti-rabbit IgG, from Cell Signaling Technology, Inc) diluted 1:2000 and measured using enhanced chemiluminescence (ECL, Amersham Biosciences).

L6 myotubes = experiment: Glucose uptake (3H-2-deoxy-glucose) in L6 myoblasts and L6 myotubes; assay type: cell-based; settings: for glucose uptake in L6 myoblasts and L6 myotubes / mTORC2 activity represented by glucose uptake: FIG. 2; for mTORC2 activity represented by glucose uptake: L6 myoblasts and myotubes, reference: cells not contacted; for effect on GPCR and insulin-stimulated glucose uptake: indinavir 100M
Method: as §1, §2

Akt [2] = experiment: Western blot of Akt phosphorylation (T308, S473) in L6 myotubes; assay type: cell-based; settings: for Akt activity represented by phosphorylation of Akt: FIG. 5, 10 min, 30 min, 2 h, reference: cells not contacted
Method: as §3

mTORC2 = experiment: Western blot of mTOR phosphorylation (S2448, S2481) in L6 myotubes; assay type: cell-based; settings: for mTORC2 activity represented by phosphorylation of mTORC2: FIG. 13, reference: cells not brought into contact with the compound
Method: as §3

GLUT4 = GLUT4 in plasma membrane (GLUT4 translocation) in L6 myotubes; assay type: cell-based; settings: for mTORC2 activity represented by GLUT translocation: FIG. 20, reference: cells not contacted
rat soleus muscle = experiment: 3-O-methylglucose uptake in intact rat soleus muscle ex vivo; settings: 30 min preincubation, then insulin or isoproterenol 1 h; FIG. 11
Method: Soleus muscles were dissected from Sprague-Dawley rats and suspended in Krebs-Henseleit bicarbonate (KHB) buffer (118.5 mM NaCl, 4.7 mM KCl, 1.2 mM KH2PO4, 25 mM NaHCO3, 2.5 mM CaCl2, 1.2 mM MgSO, 5 mM HEPES) in organ baths containing 30 ml KHB containing 5 mM glucose and 15 mM mannitol, bubbled with 95% O2/5% CO2 (pH 7.4) and maintained at 37° C. […] Muscles were rinsed with KHB (20 mM mannitol) for 10 min, then incubated in KHB (8 mM 3-O-methylglucose and 12 mM mannitol with 438 μCi/mmol 3-O-methyl[^3H]glucose (80.2 Ci/mmol; PerkinElmer) and 42 μCi/mmol [^14C] mannitol (58.8 mCi/mmol; PerkinElmer, USA)) for 12 min. Muscles were then rinsed with PBS and frozen in liquid nitrogen, weighed and dissolved in 1 mL of 0.5M NaOH at 60′C. ^3H and ^14C were measured by liquid scintillation counting. Total muscle 3-O-methylglucose and extracellular space were measured as described previously (23). Intracellular 3-O-methylglucose accumulation was calculated by: (Total muscle 3-O-methylglucose)−(extracellular 3-O-methylglucose)=intracellular 3-O-methylglucose. This is then expressed as a rate of 3-O-methylglucose transport per mL of intracellular water per hour.

skeletal muscle = experiment: [3H]-2DG glucose uptake in mouse skeletal muscle in vivo; settings: WT 129sv mice, 10 mg/kg, 10 min before insulin or isoproterenol 1 mg/kg; FIG. 12
Method: After 20 min [^3H]-2DG (130 μCi/kg) was injected. Muscles were sampled 1 h later and lysed in 0.5M NaOH.
Glucose uptake was measured by liquid scintillation counting.

[3] = tested on: other members of the PI3K/PIKK family; settings: at up to 1 μM; Garcia-Martinez et al. 2009; cited from earlier work
PIP3 = PIP3 immunofluorescence in permeabilised L6 cells; assay type: cell-based; settings: FIG. 3
Method: PIP3 was visualized in permeabilised L6 cells (0.5% Triton X-100 in water, 15 min) blocked with 10% rat serum in TBS overnight at 4° C. Mouse anti-PIP3 conjugated to a biotinylated goat anti-mouse IgM diluted 1:100) was incubated for 1 h at 37° C., cells washed three times (10% rat serum in TBS), secondary antibody added (streptavidin-Alexa Fluor® 488 1:2000 in TBS, 30 min, 37° C.). Slides were mounted with ProLong® Gold antifade reagent (Invitrogen).

AS160 = experiment: Western blot of AS160 phosphorylation (T642) in L6 myotubes; assay type: cell-based; settings: FIG. 7; for Akt activity represented by phophorylation of Akt substrate: AS160 p-T642, L6 myotubes, reference: cells not contacted; for AS160 phosphorylation: L6 myotubes
Method: as §3

[4] = Glucose tolerance test in Goto-Kakizaki GK-rats; assay type: in vivo, rat; settings: in drinking water 4 days, 60, 90 and 120 minutes after glucose, vs untreated animals, FIG. 21
Method: Goto-Kakizaki GK-rats, showing impaired glucose tolerance form an established model of type 2 diabetes. GK-rats were split into two groups, one of which was treated with the GPCR agonist clenbuterol in the drinking water for 4 days prior to a glucose tolerance test.

[5] = L6 myotubes, FIG. 19, cytochalasin B 10 μM

Molecule: Br.CS(=O)(=O)Nc1c(O)ccc2c1CCCC2C1=NCCN1 (centres unmarked) [A61603, N-[5-(4,5-dihydro-1H-imidazol-2yl)-2-hydroxy-5,6,7,8-tetrahydronaphthalen-1-yl] methanesulfonamide hydrobromide]
- mTORC2 activity represented by glucose uptake (CHO GLUT4 cells; FIG. 1): + (1)
- Akt p-S473 % basal (Akt [1]): 135 % basal
- Akt activity represented by phosphorylation of Akt (Akt [1]): − (6)

Molecule: COc1ccc(-c2ccc3c(N4CCOCC4)nc(N4C[C@@H](C)O[C@@H](C)C4)nc3n2)cc1CO [KU0063794]
- effect on GPCR stimulated glucose-uptake (CHO GLUT4 cells; CHO glut 4, FIG. 10B): inhibits
- effect on GPCR stimulated glucose-uptake (L6 myotubes; L6 myotubes, FIG. 10A): inhibits
- effect on insulin-stimulated Akt phosphorylation at S473 (Akt [2]; 100 nM, L6 myotubes, FIG. 9): decreased
- effect on insulin-stimulated phosphorylation of Akt at T308 (Akt [2]; 100 nM, L6 myotubes, FIG. 9): no effect
- effect on insulin- and GPCR-stimulated mTOR phosphorylation at S2448 and S2481 (mTORC2; FIG. 13): abolished
- effect on insulin and GPCR stimulated GLUT4 translocation (GLUT4; FIG. 20): significantly inhibits
- effect on insulin and GPCR stimulated glucose-uptake in intact soleus muscle ex-vivo (rat soleus muscle): inhibits
- effect on insulin and GPCR stimulated glucose-uptake in skeletal muscle in-vivo (skeletal muscle): inhibits
- inhibition of other members of the PI3K/PIKK family [3]: does not inhibit

Molecule: O=C(Nc1cccc(Nc2ncc(Br)c(NCCc3cnc[nH]3)n2)c1)N1CCCC1 [BX-912]
- effect on insulin-mediated T308-Akt phosphorylation (Akt [2]; L6 myotubes, FIG. 8): significantly inhibited
- effect on S473-Akt phosphorylation (Akt [2]; L6 myotubes, insulin, FIG. 8): no effect

Molecule: insulin
- glucose uptake in L6 myoblasts and L6 myotubes (L6 myotubes): increased
- mTORC2 activity represented by glucose uptake (L6 myotubes): + (2)
- PIP3 content (PIP3): increased
- Akt activity represented by phosphorylation of Akt (Akt [2]; L6 myotubes): + (5, 6)
- Akt phosphorylation at T308 and S473 (Akt [2]; all time points examined, FIG. 5, FIG. 6): increased
- Akt p-S473 % basal (Akt [1]): 170 % basal
- Akt activity represented by phosphorylation of Akt (Akt [1]): + (5, 6)
- Akt activity represented by phophorylation of Akt substrate (AS160): + (7)
- AS160 phosphorylation (AS160): phosphorylated
- phosphorylation of mTOR (sites S2448, S2481) (mTORC2; FIG. 13): phosphorylation of mTOR at both S2448 and S2481
- mTORC2 activity represented by phosphorylation of mTORC2 (mTORC2): + (13)
- mTORC2 activity represented by GLUT translocation (GLUT4): + (20)

Molecule: CC(C)NCC(O)c1ccc(O)c(O)c1 (centres unmarked) [isoproterenol]
- mTORC2 activity represented by glucose uptake (CHO GLUT4 cells; FIG. 1): + (1, 2)
- glucose uptake in L6 myoblasts and L6 myotubes (L6 myotubes): increased
- mTORC2 activity represented by glucose uptake (L6 myotubes): + (1, 2)
- PIP3 content (PIP3): not isoproterenol increased PIP3 content
- Akt activity represented by phosphorylation of Akt (Akt [2]; L6 myotubes): − (5)
- Akt activity represented by phophorylation of Akt substrate (AS160): − (7)
- AS160 phosphorylation (AS160): not isoproterenol treatment
- phosphorylation of mTOR (sites S2448, S2481) (mTORC2; FIG. 13): phosphorylation only at S2481
- mTORC2 activity represented by phosphorylation of mTORC2 (mTORC2): + (13)
- mTORC2 activity represented by GLUT translocation (GLUT4): + (20)

Molecule: Cc1cc(C(C)(C)C)c(O)c(C)c1CC1=NCCN1 [oxymetazoline]
- mTORC2 activity represented by glucose uptake (CHO GLUT4 cells; FIG. 1): + (1)
- Akt p-S473 % basal (Akt [1]): 135 % basal
- Akt activity represented by phosphorylation of Akt (Akt [1]): − (6)

Molecule: CC(C)(C)NC(=O)[C@@H]1CN(Cc2cccnc2)CCN1C[C@@H](O)C[C@@H](Cc1ccccc1)C(=O)N[C@H]1c2ccccc2C[C@H]1O [indinavir]
- effect on GPCR and insulin-stimulated glucose uptake (L6 myotubes; [5]): markedly reduced

Molecule: CCN(CC)CCCCN1c2ccccc2Oc2ccc(Cl)cc21 [Akt inhibitor X]
- effect on insulin-stimulated glucose uptake (L6 myotubes; L6 myotubes, inhibitor 10 μM, FIG. 4): inhibited
- effect on GPCR-mediated glucose uptake (L6 myotubes; L6 myotubes, inhibitor 10 μM, isoproterenol, FIG. 4): not GPCR-mediated glucose uptake

Molecule: CC(C)(C)NCC(O)c1cc(Cl)c(N)c(Cl)c1 (centres unmarked) [clenbuterol]
- blood glucose levels in glucose tolerance test [4]: greatly improved

Molecule: CO[C@H]1C[C@@H]2CC[C@@H](C)[C@@](O)(O2)C(=O)C(=O)N2CCCC[C@H]2C(=O)O[C@H]([C@H](C)C[C@@H]2CC[C@@H](O)[C@H](OC)C2)CC(=O)[C@H](C)/C=C(\C)[C@@H](O)[C@@H](OC)C(=O)[C@H](C)C[C@H](C)/C=C/C=C/C=C/1C [rapamycin]
- effect on insulin mediated or isoproterenol mediated glucose uptake (L6 myotubes; short term treatment, L6 myotubes, FIG. 14): no effect

Molecule: NC[C@H](O)c1ccc(O)c(O)c1 [noradrenaline]
- mTORC2 activity represented by glucose uptake (CHO GLUT4 cells; FIG. 1): + (1)
- glucose uptake in CHO glut 4 (CHO GLUT4 cells; FIG. 1): increases
- Akt p-S473 % basal (Akt [1]): 130 % basal
- Akt activity represented by phosphorylation of Akt (Akt [1]): − (6)

Molecule: C=C1[C@@H](C)[C@H]2[C@H](Cc3ccccc3)NC(=O)[C@]23OC(=O)/C=C/[C@H](O)CCC[C@@H](C)C/C=C/[C@H]3[C@@H]1O [cytochalasin B]
- block of basal glucose uptake (L6 myotubes; L6 myotubes, FIG. 19, cytochalasin B 10 μM, indinavir): ~40%
- effect on GPCR and insulin-stimulated glucose uptake (L6 myotubes; [5]): markedly reduced
